Assay results as given in patent publication US11965039B2, “Compstatin analogues and their medical uses” (priority 2018, dated 2024).
Positions of bridges follow the written chain, without caps; N, C: chain ends. Non-standard residues stand in square brackets, D forms with d. Residues, ends and D or L forms follow the SMILES beside them. Trp(1-Me) = Cn1cc(C[C@H](N)C(=O)O)c2ccccc21; Sar = CNCC(=O)O

Tests used:
[1] = Solubility test at 10 mg/mL (visual inspection and light scattering); format: physicochemical; conditions: for Solubility, Condition 1: Acetate pH 4; for Solubility, Condition 2: Acetate pH 5; for Solubility, Condition 3: Phosphate pH 6; for Solubility, Condition 4: Phosphate pH 7; for Solubility, Condition 5: Phosphate pH 7.5
[2] = system: alternative complement pathway; experiment: Ex vivo alternative pathway complement activity (WIESLAB kit) after s.c. dosing in non-human primates; set-up: species or system Cynomolgus monkeys (Macaca fascicularis); conditions: NHP, subcutaneous 1840 nmol/kg, FIG. 1a-f
Procedure: FIG. 1(a-f): Normalized “ex vivo” activity of the alternative complement pathway over time after administration of a test compound at time 0 to one or two non-human primates. Compounds were given subcutaneously at a dose of 1840 nmol/kg. Complement activity (alternative pathway) was measured using the Wieslab kit. Activity was normalized using the predose (0) sample (set to 100%) and the negative control included in the kit. Normalized activity or average normalized activity for both animals and standard deviation is shown.
Healthy male Cynomolgus monkeys (Macaca fascicularis) received single subcutaneous administrations of each test substance. Compounds were formulated in 20 mM phosphate adjusted with NaOH to pH 7.5 and mannitol for isotonicity and dosed at 1840 nmol/kg. Blood was collected from a femoral vein from each animal at the following times: Pre-dose, 1, 2, 4, 8, 24, 48, 72, 96 and 120 h (10 sampling times). Blood was collected into serum separation tubes and allowed to clot at room temperature. The tubes were centrifuged and resulting serum was aliquoted and snap-frozen over dry-ice and stored at nominally −80° C. until analysis. All NHP studies were performed in accordance with animal welfare laws and regulations, including approval of the study by a local ethical review process.
Serum isolated from non-human primates at specific time points after dosing were analyzed for alternative pathway complement activity using the Complement system Alternative Pathway WIESLAB® kit from Svar Life Science (previously Euro diagnostic AB, Sweden) following the manufacturer's protocol. Briefly, serum samples or controls were diluted in buffer and incubated in microtitre strips coated with specific activators of the alternative pathway. The wells were washed and formed C5b-9 was detected using included colorimetric reagents. Absorbance at 405 nm was measured. The percent activity of the alternative complement pathway was calculated for each animal and timepoint relative to the pre-dose activity (0 hours) of the individual animal with subtraction of the negative control. […]

[3] = system: classical complement pathway; experiment: In vitro haemolysis assay (inhibition of classical complement pathway); format: cell-based, human; conditions: human serum, sensitized sheep red blood cells; Table 3, given as upper bounds; read-out: IC50, inhibition of hemolysis
How it was run: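 Compound dilutions preincubated 15 min at room temperature with diluted human serum (titrated per batch for 70-90% maximal haemolysis), then antibody-sensitized sheep RBC (10^7/well) added for 30 min at 37 °C in Tris/casein buffer, pH 7.4. Stopped with EDTA; haemolysis read at 405 nm; IC50 by 4PL fit.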

[4] = molecular target: T1, Human C3 (Complement tech cat #A113c) (human, UniProt P01024 23-1663); experiment: cell-based or functional assay
[5] = molecular target: T1, Human C3 (Complement tech cat #A113c); experiment: cell-based or functional assay; remark: listed apart in the source

T1 sequence (P01024 23-1663 limits assumed): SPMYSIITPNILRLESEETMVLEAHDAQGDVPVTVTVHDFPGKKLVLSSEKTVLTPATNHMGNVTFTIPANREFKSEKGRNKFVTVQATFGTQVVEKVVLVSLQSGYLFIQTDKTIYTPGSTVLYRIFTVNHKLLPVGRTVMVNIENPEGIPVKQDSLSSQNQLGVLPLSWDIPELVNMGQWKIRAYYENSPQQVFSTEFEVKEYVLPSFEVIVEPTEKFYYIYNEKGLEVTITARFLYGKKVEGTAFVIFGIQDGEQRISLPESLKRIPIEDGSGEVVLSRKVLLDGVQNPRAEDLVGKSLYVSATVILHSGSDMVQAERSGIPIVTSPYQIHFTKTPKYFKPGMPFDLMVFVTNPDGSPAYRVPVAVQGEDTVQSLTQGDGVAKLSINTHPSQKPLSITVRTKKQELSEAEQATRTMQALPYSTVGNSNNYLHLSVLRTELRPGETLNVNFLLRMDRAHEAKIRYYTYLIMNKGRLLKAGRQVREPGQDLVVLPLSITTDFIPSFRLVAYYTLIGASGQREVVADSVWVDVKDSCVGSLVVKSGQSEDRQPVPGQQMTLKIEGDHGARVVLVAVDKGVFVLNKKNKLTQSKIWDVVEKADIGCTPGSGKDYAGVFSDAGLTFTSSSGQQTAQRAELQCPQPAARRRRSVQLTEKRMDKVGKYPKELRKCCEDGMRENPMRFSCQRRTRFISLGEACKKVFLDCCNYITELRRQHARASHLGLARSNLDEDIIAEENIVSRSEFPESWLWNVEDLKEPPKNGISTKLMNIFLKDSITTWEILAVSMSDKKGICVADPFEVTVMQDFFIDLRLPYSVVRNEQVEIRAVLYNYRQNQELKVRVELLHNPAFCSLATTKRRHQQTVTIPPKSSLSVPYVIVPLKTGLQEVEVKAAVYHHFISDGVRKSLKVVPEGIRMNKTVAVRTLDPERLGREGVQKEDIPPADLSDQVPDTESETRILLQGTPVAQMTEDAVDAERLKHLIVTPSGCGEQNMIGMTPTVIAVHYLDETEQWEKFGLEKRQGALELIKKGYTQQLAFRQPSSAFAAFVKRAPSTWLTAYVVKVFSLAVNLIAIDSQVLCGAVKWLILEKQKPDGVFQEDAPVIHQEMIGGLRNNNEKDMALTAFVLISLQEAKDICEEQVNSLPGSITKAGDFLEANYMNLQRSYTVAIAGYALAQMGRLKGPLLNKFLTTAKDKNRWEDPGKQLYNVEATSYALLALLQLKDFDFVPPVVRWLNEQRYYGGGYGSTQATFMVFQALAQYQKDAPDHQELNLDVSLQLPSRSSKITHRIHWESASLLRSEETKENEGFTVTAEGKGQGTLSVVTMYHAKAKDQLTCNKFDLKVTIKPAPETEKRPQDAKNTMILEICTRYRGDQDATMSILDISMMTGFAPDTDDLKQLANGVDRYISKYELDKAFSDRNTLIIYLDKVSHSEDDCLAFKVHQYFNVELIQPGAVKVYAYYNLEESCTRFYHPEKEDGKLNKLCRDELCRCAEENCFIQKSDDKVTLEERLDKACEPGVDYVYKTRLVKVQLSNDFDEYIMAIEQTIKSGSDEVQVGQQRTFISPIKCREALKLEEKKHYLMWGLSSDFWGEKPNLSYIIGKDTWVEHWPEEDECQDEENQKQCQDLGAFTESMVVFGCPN

Row | Molecule | Solubility, Condition 1 [1] | Solubility, Condition 2 [1] | Solubility, Condition 3 [1] | Solubility, Condition 4 [1] | Solubility, Condition 5 [1] | duration of action (alternative pathway complement activity) [2] | IC50 [3] | CP hemolysis IC50 [4] | inhibition of hemolysis IC50 [5]
1 | CC[C@H](C)[C@@H]1NC(=O)[C@@H](NC(=O)[C@H](Cc2ccc(O)cc2)NC(=O)[C@H](C)NC(=O)[C@H](CO)NC(=O)CNC(=O)[C@H](CCC(=O)O)NC(C)=O)CSSC[C@@H](C(=O)N(C)CC(=O)N[C@@H](CCC(=O)O)C(N)=O)NC(=O)[C@H](CCCNC(=N)N)NC(=O)[C@H](Cc2c[nH]cn2)NC(=O)[C@H](CCC(=O)O)NC(=O)CNC(=O)[C@H](Cc2c[nH]c3ccccc23)NC(=O)[C@H](CC(=O)O)NC(=O)[C@H](CCC(N)=O)NC(=O)[C@H](Cc2cn(C)c3ccccc23)NC1=O [Compound 54] (Ac-EGSAYCI[Trp(1-Me)]QDWGEHRC[Sar]E-NH2; disulfide 6-16) | − (“−” denotes lack of solubility at the given condition, as UV absorbance at 340 nm exceeds 0.1 AU and/or it is visibly turbid or contains particles) | − (“−” denotes lack of solubility at the given condition, as UV absorbance at 340 nm exceeds 0.1 AU and/or it is visibly turbid or contains particles) | + (“+” denotes solubility at the given condition, as determined by UV absorbance being less than 0.1 AU at 340 nm and the sample being clear when manually inspected) | + (“+” denotes solubility at the given condition, as determined by UV absorbance being less than 0.1 AU at 340 nm and the sample being clear when manually inspected) | + (“+” denotes solubility at the given condition, as determined by UV absorbance being less than 0.1 AU at 340 nm and the sample being clear when manually inspected) | relatively short duration of action | < 100 nM | – | –
2 | CC[C@H](C)[C@@H]1NC(=O)[C@@H](NC(=O)[C@H](Cc2ccccc2)NC(C)=O)CSSC[C@@H](C(=O)N[C@H](C(=O)NCC(=O)N[C@@H](C)C(=O)N[C@@H](CCC(=O)O)C(=O)N[C@@H](CO)C(N)=O)[C@@H](C)O)NC(=O)[C@H](CCCNC(=N)N)NC(=O)[C@H](Cc2c[nH]cn2)NC(=O)[C@H](CCC(=O)O)NC(=O)CNC(=O)[C@H](Cc2c[nH]c3ccccc23)NC(=O)[C@H](CC(=O)O)NC(=O)[C@H](CCC(N)=O)NC(=O)[C@H](Cc2cn(C)c3ccccc23)NC1=O [Compound 61] (Ac-FCI[Trp(1-Me)]QDWGEHRCTGAES-NH2; disulfide 2-12) | − (“−” denotes lack of solubility at the given condition, as UV absorbance at 340 nm exceeds 0.1 AU and/or it is visibly turbid or contains particles) | − (“−” denotes lack of solubility at the given condition, as UV absorbance at 340 nm exceeds 0.1 AU and/or it is visibly turbid or contains particles) | + (“+” denotes solubility at the given condition, as determined by UV absorbance being less than 0.1 AU at 340 nm and the sample being clear when manually inspected) | + (“+” denotes solubility at the given condition, as determined by UV absorbance being less than 0.1 AU at 340 nm and the sample being clear when manually inspected) | + (“+” denotes solubility at the given condition, as determined by UV absorbance being less than 0.1 AU at 340 nm and the sample being clear when manually inspected) | relatively short duration of action | < 100 nM | – | –
3 | CC[C@H](C)[C@H](NC(=O)[C@H](N)Cc1ccc(O)cc1)C(=O)N[C@H]1CSSC[C@@H](C(=O)N(C)[C@H](C(N)=O)[C@@H](C)CC)NC(=O)[C@H](CCCNC(=N)N)NC(=O)[C@H](Cc2c[nH]cn2)NC(=O)[C@H](C)NC(=O)CN(C)C(=O)[C@H](Cc2c[nH]c3ccccc23)NC(=O)[C@H](CC(=O)O)NC(=O)[C@H](CCC(N)=O)NC(=O)[C@H](Cc2cn(C)c3ccccc23)NC(=O)[C@H](C(C)C)NC1=O [Cp40, H-{d}YIC(1)V[1-Me-Trp]QDW[Sar]AHRC(1)[N-Me-Ile]-NH2, reference compound] | – | – | – | – | – | relatively short duration of action | < 100 nM | – | –
4 | Ac-ICIWQDWGAHRCT-NH2 (disulfide 2-12; SMILES CC[C@H](C)[C@H](NC(C)=O)C(=O)N[C@H]1CSSC[C@@H](C(=O)N[C@H](C(N)=O)[C@@H](C)O)NC(=O)[C@H](CCCNC(=N)N)NC(=O)[C@H](Cc2c[nH]cn2)NC(=O)[C@H](C)NC(=O)CNC(=O)[C@H](Cc2c[nH]c3ccccc23)NC(=O)[C@H](CC(=O)O)NC(=O)[C@H](CCC(N)=O)NC(=O)[C@H](Cc2c[nH]c3ccccc23)NC(=O)[C@H]([C@@H](C)CC)NC1=O) [Compound 1] | – | – | – | – | – | – | – | 150 nM | < 250 nM
